Data: ChEMBL document CHEMBL5518215, “Unlocking Antibacterial Potential: Key-Site-Based Regulation of Antibacterial Spectrum of Peptides” (J Med Chem, 2024)

How the values were obtained:
Escherichia coli [1] = test: Antimicrobial activity against Escherichia coli 25922 assessed as absence bacterial growth measured after 18 to 24 hrs incubation in presence of 12.5% serum by NCCLS method; format: functional; settings: time 18-24 hrs
[2] = Cytotoxicity against human HEK-293T cells assessed as cell survival rate at 64 uM measured after 8 hrs by MTT assay relative to control; format: toxicity, cell-based; settings: read-out: Activity
Escherichia coli [3] = test: Antimicrobial activity against Escherichia coli 25922 assessed as absence bacterial growth measured after 18 to 24 hrs incubation in presence of 50% serum by NCCLS method; format: functional; settings: time 18-24 hrs
[4] = test system: Staphylococcus epidermidis; test: Antimicrobial activity against Staphylococcus epidermidis 12228 assessed as bacterial killing measured after 16 hrs incubation; format: functional
Listeria monocytogenes [5] = test: Antimicrobial activity against Listeria monocytogenes 1.10753 assessed as absence bacterial growth measured after 18 to 24 hrs incubation by NCCLS method; format: functional; settings: time 18-24 hrs
[6] = Cytotoxicity against mouse RAW264.7 cells assessed as cell survival rate measured after 8 hrs by MTT assay; format: toxicity, cell-based
Escherichia coli [7] = test: Antimicrobial activity against Escherichia coli 25922 assessed as absence bacterial growth measured after 18 to 24 hrs incubation in presence of 25% serum by NCCLS method; format: functional; settings: time 18-24 hrs
Salmonella typhimurium [8] = test: Antimicrobial activity against Salmonella typhimurium 14028 assessed as absence bacterial growth measured after 18 to 24 hrs incubation by NCCLS method; format: functional, Salmonella enterica subsp. enterica serovar Typhimurium; settings: Salmonella enterica, time 18-24 hrs
Escherichia coli [9] = test: Antimicrobial activity against Escherichia coli 25922 assessed as absence bacterial growth measured after 18 to 24 hrs incubation in presence of MgCl2 by NCCLS method; format: functional; settings: time 18-24 hrs
Staphylococcus aureus [10] = test: Antimicrobial activity against Staphylococcus aureus 29213 assessed as absence bacterial growth measured after 18 to 24 hrs incubation by NCCLS method; format: functional; settings: time 18-24 hrs
Escherichia coli [11] = test: Antimicrobial activity against Escherichia coli 25922 assessed as absence bacterial growth measured after 18 to 24 hrs incubation in presence of FeCl3 by NCCLS method; format: functional; settings: time 18-24 hrs
Erythrocyte = test: Hemolytic activity in human RBC at effective concentration measured after 1 hr by microplate reader analysis; format: toxicity, cell-based
Bacillus cereus [12] = test: Antimicrobial activity against Bacillus cereus 1.932 assessed as bacterial killing measured after 16 hrs incubation; format: functional
Acinetobacter baumannii [13] = test: Antimicrobial activity against Acinetobacter baumannii 1.6769 assessed as bacterial killing measured after 16 hrs incubation; format: functional
Pseudomonas aeruginosa [14] = test: Antimicrobial activity against Pseudomonas aeruginosa 27853 assessed as bacterial killing measured after 16 hrs incubation; format: functional
[15] = test system: Staphylococcus epidermidis; test: Antimicrobial activity against Staphylococcus epidermidis 12228 assessed as absence bacterial growth measured after 18 to 24 hrs incubation by NCCLS method; format: functional; settings: time 18-24 hrs
Bacillus cereus [16] = test: Antimicrobial activity against Bacillus cereus 1.932 assessed as absence bacterial growth measured after 18 to 24 hrs incubation by NCCLS method; format: functional; settings: time 18-24 hrs
Escherichia coli [17] = test: Antimicrobial activity against Escherichia coli 25922 assessed as absence bacterial growth measured after 18 to 24 hrs incubation in presence of KCl by NCCLS method; format: functional; settings: time 18-24 hrs
[18] = Cytotoxicity against porcine IPEC-J2 cells assessed as cell survival rate at 64 uM measured after 8 hrs by MTT assay relative to control; format: toxicity, cell-based, Sus scrofa; settings: pig, read-out: Activity
[19] = Antimicrobial activity against Salmonella pullorum C7913 assessed as bacterial killing measured after 16 hrs incubation; format: functional, Salmonella enterica subsp. enterica serovar Pullorum; settings: Salmonella enterica
Escherichia coli [20] = test: Antimicrobial activity against Escherichia coli 25922 assessed as absence bacterial growth measured after 18 to 24 hrs incubation in presence of NaCl by NCCLS method; format: functional; settings: time 18-24 hrs
Salmonella typhimurium [21] = test: Antimicrobial activity against Salmonella typhimurium 14028 assessed as bacterial killing measured after 16 hrs incubation; format: functional, Salmonella enterica subsp. enterica serovar Typhimurium; settings: Salmonella enterica
Staphylococcus aureus [22] = test: Antimicrobial activity against Staphylococcus aureus 29213 assessed as absence bacterial growth measured after 18 to 24 hrs incubation by NCCLS m; format: functional; settings: time 18-24 hrs
Escherichia coli [23] = test: Antimicrobial activity against Escherichia coli 25922 assessed as absence bacterial growth measured after 18 to 24 hrs incubation by NCCLS method; format: functional; settings: time 18-24 hrs
[24] = Cytotoxicity against human HEK-293T cells assessed as cell survival rate measured after 8 hrs by MTT assay; format: toxicity, cell-based
Acinetobacter baumannii [25] = test: Antimicrobial activity against Acinetobacter baumannii 1.6769 assessed as absence bacterial growth measured after 18 to 24 hrs incubation by NCCLS method; format: functional; settings: time 18-24 hrs
Salmonella typhimurium [26] = test: Antimicrobial activity against Salmonella typhimurium C7731 assessed as bacterial killing measured after 16 hrs incubation; format: functional, Salmonella enterica subsp. enterica serovar Typhimurium; settings: Salmonella enterica
[27] = Cytotoxicity against porcine IPEC-J2 cells assessed as cell survival rate measured after 8 hrs by MTT assay; format: toxicity, cell-based, Sus scrofa; settings: pig
Staphylococcus aureus [28] = test: Antimicrobial activity against Methicillin-resistant Staphylococcus aureus 43300 assessed as bacterial killing measured after 16 hrs incubation; format: functional
Escherichia coli [29] = test: Antimicrobial activity against Escherichia coli 25922 assessed as bacterial killing measured after 16 hrs incubation; format: functional
Staphylococcus aureus [30] = test: Antimicrobial activity against Staphylococcus aureus 29213 assessed as bacterial killing measured after 16 hrs incubation; format: functional
[31] = Antimicrobial activity against Salmonella pullorum C7913 assessed as absence bacterial growth measured after 18 to 24 hrs incubation by NCCLS method; format: functional, Salmonella enterica subsp. enterica serovar Pullorum; settings: Salmonella enterica, time 18-24 hrs
Escherichia coli [32] = test: Antimicrobial activity against Escherichia coli 25922 assessed as absence bacterial growth measured after 18 to 24 hrs incubation in presence of ZnCl2 by NCCLS method; format: functional; settings: time 18-24 hrs
Escherichia coli [33] = test: Antimicrobial activity against Escherichia coli 25922 assessed as absence bacterial growth measured after 18 to 24 hrs incubation in presence of NH4Cl by NCCLS method; format: functional; settings: time 18-24 hrs
Staphylococcus aureus [34] = test: Antimicrobial activity against Staphylococcus aureus 25923 assessed as bacterial killing measured after 16 hrs incubation; format: functional
Salmonella typhimurium [35] = test: Antimicrobial activity against Salmonella typhimurium C7731 assessed as absence bacterial growth measured after 18 to 24 hrs incubation by NCCLS method; format: functional, Salmonella enterica subsp. enterica serovar Typhimurium; settings: Salmonella enterica, time 18-24 hrs
Escherichia coli [36] = test: Antimicrobial activity against Escherichia coli K88 assessed as bacterial killing measured after 16 hrs incubation; format: functional
[37] = Hemolytic activity in human RBC at effective concentration at 128 uM measured after 1 hr by microplate reader relative to control; format: toxicity, cell-based, Erythrocyte; settings: human red blood cells (erythrocytes), read-out: Activity
Listeria monocytogenes [38] = test: Antimicrobial activity against Listeria monocytogenes 1.10753 assessed as bacterial killing measured after 16 hrs incubation; format: functional
Enterococcus faecalis [39] = test: Antimicrobial activity against Enterococcus faecalis 29212 assessed as bacterial killing measured after 16 hrs incubation; format: functional
Staphylococcus aureus [40] = test: Antimicrobial activity against Methicillin-resistant Staphylococcus aureus 43300 assessed as absence bacterial growth measured after 18 to 24 hrs incubation by NCCLS method; format: functional; settings: time 18-24 hrs
Enterococcus faecalis [41] = test: Antimicrobial activity against Enterococcus faecalis 29212 assessed as absence bacterial growth measured after 18 to 24 hrs incubation by NCCLS method; format: functional; settings: time 18-24 hrs
Pseudomonas aeruginosa [42] = test: Antimicrobial activity against Pseudomonas aeruginosa 27853 assessed as absence bacterial growth measured after 18 to 24 hrs incubation by NCCLS method; format: functional; settings: time 18-24 hrs
Escherichia coli [43] = test: Antimicrobial activity against Escherichia coli K88 assessed as absence bacterial growth measured after 18 to 24 hrs incubation by NCCLS method; format: functional; settings: time 18-24 hrs

## H-GKLWLKGGKLWLKGGKLWLKA-NH2
Escherichia coli [1]
  MIC: 32 µM
[2]
  viability at 8 h, 64 µM: > 80%
Escherichia coli [3]
  MIC: > 32 µM
[4]
  MBC: 8 µM
Listeria monocytogenes [5]
  MIC: > 32 µM
[6]
  IC50 at 8 h: > 64 µM
Escherichia coli [7]
  MIC: > 32 µM
Salmonella typhimurium [8]
  MIC: 2 µM
Escherichia coli [9]
  MIC: 8 µM
Staphylococcus aureus [10]
  MIC: 16 µM
Escherichia coli [11]
  MIC: 2 µM
Erythrocyte
  HC10: > 128 µM
Bacillus cereus [12]
  MBC: > 32 µM
Acinetobacter baumannii [13]
  MBC: 4 µM
Pseudomonas aeruginosa [14]
  MBC: 4 µM
[15]
  MIC: 8 µM
Bacillus cereus [16]
  MIC: > 32 µM
Escherichia coli [17]
  MIC: 2 µM
[18]
  viability at 8 h, 64 µM: > 80%
[19]
  MBC: 4 µM
Escherichia coli [20]
  MIC: 32 µM
Salmonella typhimurium [21]
  MBC: 8 µM
Staphylococcus aureus [22]
  MIC: > 32 µM
Escherichia coli [23]
  MIC: 2 µM
[24]
  IC50 at 8 h: > 64 µM
Acinetobacter baumannii [25]
  MIC: 4 µM
Salmonella typhimurium [26]
  MBC: 8 µM
[27]
  IC50 at 8 h: > 64 µM
Staphylococcus aureus [28]
  MBC: 8 µM
Escherichia coli [29]
  MBC: 4 µM
Staphylococcus aureus [30]
  MBC: 32 µM
[31]
  MIC: 2 µM
Escherichia coli [32]
  MIC: 2 µM
Escherichia coli [33]
  MIC: 2 µM
Staphylococcus aureus [34]
  MBC: > 32 µM
Salmonella typhimurium [35]
  MIC: 4 µM
Escherichia coli [36]
  MBC: 0.5 µM
[37]
  hemolysis at 1 h, 128 µM: < 10%
Listeria monocytogenes [38]
  MBC: > 32 µM
Enterococcus faecalis [39]
  MBC: 16 µM
Staphylococcus aureus [40]
  MIC: 8 µM
Enterococcus faecalis [41]
  MIC: 16 µM
Pseudomonas aeruginosa [42]
  MIC: 4 µM
Escherichia coli [43]
  MIC: 0.5 µM

## H-LKLWLKGGKLWLKGGKLWLKG-NH2
Escherichia coli [1]
  MIC: 32 µM
Escherichia coli [3]
  MIC: > 32 µM
[4]
  MBC: > 32 µM
Listeria monocytogenes [5]
  MIC: > 32 µM
[6]
  IC50 at 8 h: > 64 µM
Escherichia coli [7]
  MIC: > 32 µM
Salmonella typhimurium [8]
  MIC: > 32 µM
Escherichia coli [9]
  MIC: > 32 µM
Staphylococcus aureus [10]
  MIC: > 32 µM
Escherichia coli [11]
  MIC: 8 µM
Erythrocyte
  HC10: > 128 µM
Bacillus cereus [12]
  MBC: > 32 µM
Acinetobacter baumannii [13]
  MBC: 16 µM
Pseudomonas aeruginosa [14]
  MBC: 32 µM
[15]
  MIC: > 32 µM
Bacillus cereus [16]
  MIC: > 32 µM
Escherichia coli [17]
  MIC: 8 µM
[19]
  MBC: 2 µM
Escherichia coli [20]
  MIC: > 32 µM
Salmonella typhimurium [21]
  MBC: > 32 µM
Staphylococcus aureus [22]
  MIC: > 32 µM
Escherichia coli [23]
  MIC: 4 µM
[24]
  IC50 at 8 h: > 64 µM
Acinetobacter baumannii [25]
  MIC: 16 µM
Salmonella typhimurium [26]
  MBC: > 32 µM
[27]
  IC50 at 8 h: 33.4 µM
Staphylococcus aureus [28]
  MBC: > 32 µM
Escherichia coli [29]
  MBC: 16 µM
Staphylococcus aureus [30]
  MBC: > 32 µM
[31]
  MIC: 2 µM
Escherichia coli [32]
  MIC: 8 µM
Escherichia coli [33]
  MIC: 8 µM
Staphylococcus aureus [34]
  MBC: > 32 µM
Salmonella typhimurium [35]
  MIC: > 32 µM
Escherichia coli [36]
  MBC: 1 µM
[37]
  hemolysis at 1 h, 128 µM: < 10%
Listeria monocytogenes [38]
  MBC: > 32 µM
Enterococcus faecalis [39]
  MBC: > 32 µM
Staphylococcus aureus [40]
  MIC: > 32 µM
Enterococcus faecalis [41]
  MIC: > 32 µM
Pseudomonas aeruginosa [42]
  MIC: 32 µM
Escherichia coli [43]
  MIC: 1 µM
